In ChEMBL document CHEMBL6153174, “Design and Synthesis of Novel Deazapurine DNMT 1 Inhibitors with In Vivo Efficacy in DLBCL” (J Med Chem, 2025):

Assays:
TMD8 [1] = test: Induction of cell cycle arrest in human TMD8 cells assessed as accumulation of cells at G2/M phase at 1.0 uM incubated for 24 hrs by PI staining based flow cytometry analysis (reference value: 20.4%); format: functional
DOHH-2 [2] = test: Induction of cell cycle arrest in human DOHH-2 cells assessed as accumulation of cells at G2-M phase at 0.5 uM incubated for 24 hrs by PI staining based flow cytometry analysis (reference value: 27.8%); format: functional
DOHH-2 [3] = test: Induction of cell cycle arrest in human DOHH-2 cells assessed as accumulation of cells at G2-M phase at 1.0 uM incubated for 24 hrs by PI staining based flow cytometry analysis (reference value: 27.8%); format: functional
[4] = Cmax in Sprague-Dawley rat at 10 mg/kg, po measured upto 24 hrs by LC/MS/MS analysis; format: ADME, organism-based; details: in vivo
[5] = Downregulation of FAS methylation level in human DOHH-2 cells at 100 nM measured after 6 days by PCR analysis relative to control; format: functional; details: time 6 day
RPMI-8226 = test: Antiproliferative activity against human RPMI-8226 cells assessed as inhibition of cell viability measured after 72 hrs by MTT assay; format: functional, cell-based; details: RPMI-8226, 72 h
A549 = test: Antiproliferative activity against human A549 cells assessed as inhibition of cell viability measured after 72 hrs by MTT assay; format: functional, cell-based; details: A549, 72 h
DOHH-2 [6] = test: Induction of apoptosis in human DOHH-2 cells assessed as early apoptotic cells at 2.5 uM measured after 48 hrs by annexin-V/FITC and PI staining based flow cytometry analysis (reference value: 5.69%); format: functional
TMD8 [7] = test: Induction of apoptosis in human TMD8 cells assessed as early apoptotic cells at 2.5 uM measured after 48 hrs by annexin-V/FITC and PI staining based flow cytometry analysis (reference value: 9.15%); format: functional
DOHH-2 [8] = test: Induction of apoptosis in human DOHH-2 cells assessed as late apoptotic cells at 2.5 uM measured after 48 hrs by annexin-V/FITC and PI staining based flow cytometry analysis (reference value: 3.66%); format: functional
TMD8 [9] = test: Induction of apoptosis in human TMD8 cells assessed as early apoptotic cells at 5 uM measured after 48 hrs by annexin-V/FITC and PI staining based flow cytometry analysis (reference value: 9.15%); format: functional
TMD8 [10] = test: Antitumor activity against human TMD8 cells xenografted in mouse model assessed as tumor inhibition rate at 10 mg/kg, iv administered three times a week relative to control; format: functional; design: scale not given: the % may be the effect or the level left
TMD8 [11] = test: Induction of cell cycle arrest in human TMD8 cells assessed as accumulation of cells at G2/M phase incubated for 24 hrs by PI staining based flow cytometry analysis; format: functional; details: dose 0.25-1 µM
[12] = Subacute toxicity in Balb/C mouse assessed as effect on kidney at 30 mg/kg, iv administered three times in a week for 2 weeks; format: organism-based; details: in vivo, 336 h
[13] = Antitumor activity against human TMD8 cells harbouring […] xenografted in mouse model assessed as tumor inhibition rate at 10 mg/kg, iv administered three times a week in presence of chidamide relative to control; format: functional; design: scale not given: the % may be the effect or the level left
[14] = target: T1, Histone-lysine N-methyltransferase EHMT2 (Homo sapiens) (UniProt Q96KQ7); test: Inhibition of G9a (unknown origin) at 5 uM preincubated for 15 mins followed by substrate and [3H-SAM] addition and measured after 60 mins by microbeta analysis relative to control; details: time 75.0 min
T1 sequence (whole entry): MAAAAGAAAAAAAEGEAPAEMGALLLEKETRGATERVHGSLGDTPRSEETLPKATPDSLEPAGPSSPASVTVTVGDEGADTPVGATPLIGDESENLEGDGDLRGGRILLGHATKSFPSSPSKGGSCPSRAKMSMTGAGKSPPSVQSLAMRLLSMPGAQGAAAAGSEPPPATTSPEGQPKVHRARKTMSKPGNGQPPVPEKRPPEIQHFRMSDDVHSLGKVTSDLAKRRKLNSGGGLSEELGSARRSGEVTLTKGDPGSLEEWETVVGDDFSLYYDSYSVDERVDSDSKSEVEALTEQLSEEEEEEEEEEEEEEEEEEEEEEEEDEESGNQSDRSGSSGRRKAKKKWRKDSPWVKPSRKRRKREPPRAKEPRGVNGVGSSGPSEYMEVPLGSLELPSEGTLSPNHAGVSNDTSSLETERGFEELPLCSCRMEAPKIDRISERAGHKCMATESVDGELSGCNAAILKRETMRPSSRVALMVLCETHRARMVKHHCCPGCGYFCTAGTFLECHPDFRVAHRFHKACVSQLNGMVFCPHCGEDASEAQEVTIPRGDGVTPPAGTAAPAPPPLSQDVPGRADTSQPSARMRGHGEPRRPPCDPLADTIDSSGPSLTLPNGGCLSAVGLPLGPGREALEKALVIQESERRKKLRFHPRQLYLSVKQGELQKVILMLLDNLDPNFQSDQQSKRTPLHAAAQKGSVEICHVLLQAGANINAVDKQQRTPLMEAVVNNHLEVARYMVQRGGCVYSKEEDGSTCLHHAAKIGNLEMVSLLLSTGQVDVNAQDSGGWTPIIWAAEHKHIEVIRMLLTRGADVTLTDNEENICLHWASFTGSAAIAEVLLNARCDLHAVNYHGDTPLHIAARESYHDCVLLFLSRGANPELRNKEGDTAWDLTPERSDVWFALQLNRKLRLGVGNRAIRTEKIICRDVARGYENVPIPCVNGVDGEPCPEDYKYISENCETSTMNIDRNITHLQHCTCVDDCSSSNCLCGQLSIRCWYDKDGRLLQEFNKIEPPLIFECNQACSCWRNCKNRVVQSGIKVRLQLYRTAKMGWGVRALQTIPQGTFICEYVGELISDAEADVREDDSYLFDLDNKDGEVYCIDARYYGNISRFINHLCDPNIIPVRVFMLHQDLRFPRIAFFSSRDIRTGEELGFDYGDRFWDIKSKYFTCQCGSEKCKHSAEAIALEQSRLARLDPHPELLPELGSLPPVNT

[15] = Terminal elimination half life in Sprague-Dawley rat at 10 mg/kg, iv measured upto 24 hrs by LC/MS/MS analysis; format: ADME, organism-based; details: in vivo, read-out: beta t1/2 (converted)
[16] = Subacute toxicity in Balb/C mouse assessed as effect on lung at 30 mg/kg, iv administered three times in a week for 2 weeks; format: organism-based; details: in vivo, 336 h
NCI-H1299 = test: Antiproliferative activity against human NCI-H1299 cells assessed as inhibition of cell viability measured after 72 hrs by MTT assay; format: functional, cell-based; details: NCI-H1299, 72 h
DOHH-2 [17] = test: Induction of cell cycle arrest in human DOHH-2 cells assessed as accumulation of cells at G0-G1 phase at 1 uM incubated for 24 hrs by PI staining based flow cytometry analysis (reference value: 27.1%); format: functional
[18] = target: DNA (cytosine-5)-methyltransferase 3A (Homo sapiens, UniProt Q9Y6K1); test: Inhibition of DNMT3A (unknown origin) at 5 uM preincubated for 15 mins followed by substrate and [3H-SAM] addition and measured after 60 mins by microbeta analysis relative to control; details: time 75.0 min
[19] = Subacute toxicity in Balb/C mouse assessed as effect on hematocrit at 30 mg/kg, iv administered three times in a week for 2 weeks; format: organism-based; details: in vivo, 336 h

Sequence of DNA (cytosine-5)-methyltransferase 3A (Q9Y6K1 whole entry, looked up): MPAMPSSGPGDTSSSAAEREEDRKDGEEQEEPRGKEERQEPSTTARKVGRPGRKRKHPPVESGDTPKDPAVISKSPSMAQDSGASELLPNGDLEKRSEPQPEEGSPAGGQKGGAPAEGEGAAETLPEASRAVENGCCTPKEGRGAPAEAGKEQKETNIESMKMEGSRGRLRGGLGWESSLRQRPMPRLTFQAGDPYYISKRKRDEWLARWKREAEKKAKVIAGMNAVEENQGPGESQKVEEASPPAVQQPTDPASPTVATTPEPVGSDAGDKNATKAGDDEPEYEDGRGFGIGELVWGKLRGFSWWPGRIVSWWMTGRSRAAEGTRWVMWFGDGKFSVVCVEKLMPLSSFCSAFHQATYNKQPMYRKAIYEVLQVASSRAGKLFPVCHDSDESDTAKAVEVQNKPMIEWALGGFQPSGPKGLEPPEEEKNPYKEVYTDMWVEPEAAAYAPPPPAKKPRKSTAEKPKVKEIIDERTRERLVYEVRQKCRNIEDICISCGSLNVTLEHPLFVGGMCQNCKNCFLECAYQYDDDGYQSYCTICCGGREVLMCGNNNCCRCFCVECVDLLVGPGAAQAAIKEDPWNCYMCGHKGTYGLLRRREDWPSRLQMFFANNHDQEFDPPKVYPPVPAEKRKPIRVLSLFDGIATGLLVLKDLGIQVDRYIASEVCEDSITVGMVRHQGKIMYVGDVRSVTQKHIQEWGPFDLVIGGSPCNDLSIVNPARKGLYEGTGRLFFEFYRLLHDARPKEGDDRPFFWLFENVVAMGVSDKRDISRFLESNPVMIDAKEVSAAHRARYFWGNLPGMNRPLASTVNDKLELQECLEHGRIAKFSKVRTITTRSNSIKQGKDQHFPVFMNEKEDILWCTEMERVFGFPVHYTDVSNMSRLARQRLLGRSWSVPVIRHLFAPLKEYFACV

Cmax [4]: 16.7 ng/mL
IC50 (RPMI-8226): 780 nM
IC50 (A549): 720 nM
inhibition [14]: 0.3%
half-life [15]: 10.8 h
IC50 (NCI-H1299): 2380 nM
inhibition [18]: 11%
SMILES: CN1CCC(Nc2nc(-c3ccnc(F)c3)nc3c2ccn3CCCN2CCCC2)CC1
Activity (TMD8 [1]): 38.2%
Activity (DOHH-2 [2]): 29.1%
Activity (DOHH-2 [3]): 32%
Activity [5]: 54.2%
Activity (DOHH-2 [6]): 33.7%
Activity (TMD8 [7]): 23%
Activity (DOHH-2 [8]): 23.5%
Activity (TMD8 [9]): 41.3%
Activity (TMD8 [10]): 54.61%
Activity (TMD8 [11]): Dose-dependent-effect
Activity [12]: Non-toxic
Activity [13]: 78.1%
Activity [16]: Non-toxic
Activity (DOHH-2 [17]): 42.2%
Activity [19]: Non-toxic
